Literature values, collected in article PMC10221159, “Investigation of N-Acetyltransferase 2-Mediated Drug Interactions of Amifampridine: In Vitro and In Vivo Evidence of Drug Interactions with Acetaminophen” (Pharmaceutics, 2023).

Conditions: humans, cited from earlier work

For `Nc1ccncc1N` [amifampridine], the “dose excreted via the urine within 24 h” value (after administration of amifampridine) is listed as 19%, the “dose excreted via the urine within 24 h as amifampridine plus 3-N-acetylamifampridine” value is listed as “More than 90%” and the elimination half-life is listed as “approximately 2.5 h”.
